Results published in ChEMBL document CHEMBL1201862, “PubChem BioAssay data set” (2004).
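Dose response: 5 concentrations. Exposure: 48 h. Format: 96-well plates. Endpoint: linear interpolation; highest concentration if not reached. Here, GI50 denotes the concentration required for 50% inhibition of growth.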 Active and inactive are the calls of the source. Rule as the data show it: active = GI50 up to about 1.1 µM and inactive = higher.

What was measured:
Experiment in all cases: growth of human tumour cells (NCI), 48 h
[1] = tested on: TK-10
[2] = tested on: 786-0
[3] = tested on: SK-OV-3
[4] = tested on: RXF 393
[5] = tested on: LOX IMVI
[6] = tested on: NCI-H522
[7] = tested on: A549
[8] = tested on: MDA-MB-435
[9] = tested on: RPMI-8226
[10] = tested on: SF-539
[11] = tested on: K562
[12] = tested on: SR
[13] = tested on: HCC 2998
[14] = tested on: PC-3
[15] = tested on: BT-549
[16] = tested on: HOP-62
[17] = tested on: NCI-H23
[18] = tested on: OVCAR-4
[19] = tested on: SNB-75
[20] = tested on: SK-MEL-2
[21] = tested on: SNB-19
[22] = tested on: SF-268
[23] = tested on: DU-145
[24] = tested on: MCF7
[25] = tested on: KM12
[26] = tested on: UO-31
[27] = tested on: HCT-116
[28] = tested on: HCT-15
[29] = tested on: NCI/ADR-RES
[30] = tested on: COLO 205
[31] = tested on: SN12C
[32] = tested on: MOLT-4
[33] = tested on: HL-60
[34] = tested on: UACC-62
[35] = tested on: CAKI-1
[36] = tested on: MDA-N
[37] = tested on: HT-29
[38] = tested on: OVCAR-5
[39] = tested on: EKVX
[40] = tested on: IGROV-1
[41] = tested on: SF-295
[42] = tested on: T47D
[43] = tested on: SK-MEL-28
[44] = tested on: OVCAR-8
[45] = tested on: HOP-92
[46] = tested on: SW-620
[47] = tested on: NCI-H226
[48] = tested on: OVCAR-3
[49] = tested on: Hs-578T
[50] = tested on: A498
[51] = tested on: ACHN
[52] = tested on: SK-MEL-5
[53] = tested on: M14
[54] = tested on: NCI-H460
[55] = tested on: U-251
[56] = tested on: UACC-257
[57] = tested on: Malme-3M
[58] = tested on: MDA-MB-231
[59] = tested on: CCRF-CEM

## COC(=O)[C@@H]1C=C[C@H](OC2OC(COC(C)=O)C(OC(C)=O)C(OC(C)=O)C2OC(C)=O)n2c(=O)n(-c3ccccc3)c(=O)n21 (some centres not stated)
[1]
  GI50: 1.79 µM (inactive)
[2]
  GI50: 1.41 µM (inactive)
[3]
  GI50: 15.9 µM (inactive)
[4]
  GI50: 1.95 µM (inactive)
[5]
  GI50: 1.56 µM (inactive)
[6]
  GI50: 0.507 µM (active)
[7]
  GI50: 14.7 µM (inactive)
[8]
  GI50: 5.14 µM (inactive)
[9]
  GI50: 1.47 µM (inactive)
[10]
  GI50: 2.74 µM (inactive)
[11]
  GI50: 1.61 µM (inactive)
[12]
  GI50: 1.82 µM (inactive)
[13]
  GI50: 8 µM (inactive)
[14]
  GI50: 2.77 µM (inactive)
[15]
  GI50: 2.29 µM (inactive)
[16]
  GI50: 14.5 µM (inactive)
[17]
  GI50: 5.3 µM (inactive)
[18]
  GI50: 1.77 µM (inactive)
[19]
  GI50: 4.06 µM (inactive)
[20]
  GI50: 2.25 µM (inactive)
[21]
  GI50: 11.4 µM (inactive)
[22]
  GI50: 2.51 µM (inactive)
[23]
  GI50: 4.75 µM (inactive)
[24]
  GI50: 2.35 µM (inactive)
[25]
  GI50: 5.5 µM (inactive)
[26]
  GI50: 2.24 µM (inactive)
[27]
  GI50: 1.86 µM (inactive)
[28]
  GI50: 1.84 µM
[29]
  GI50: 6.92 µM (inactive)
[30]
  GI50: 1.85 µM (inactive)
[31]
  GI50: 2.69 µM (inactive)
[32]
  GI50: 2.13 µM (inactive)
[33]
  GI50: 1.1 µM (active)
[34]
  GI50: 3.1 µM (inactive)
[35]
  GI50: 1.2 µM (inactive)
[36]
  GI50: 2.57 µM (inactive)
[37]
  GI50: 1.88 µM (inactive)
[38]
  GI50: 6.27 µM (inactive)
[39]
  GI50: 5.9 µM (inactive)
[40]
  GI50: 3.87 µM (inactive)
[41]
  GI50: 10.8 µM (inactive)
[42]
  GI50: 2.57 µM (inactive)
[43]
  GI50: 2.33 µM (inactive)
[44]
  GI50: 2.55 µM (inactive)
[45]
  GI50: 1.77 µM (inactive)
[46]
  GI50: 1.79 µM (inactive)
[47]
  GI50: 12.2 µM (inactive)
[48]
  GI50: 1.74 µM (inactive)
[49]
  GI50: 17.3 µM (inactive)
[50]
  GI50: 7.46 µM (inactive)
[51]
  GI50: 1.72 µM (inactive)
[52]
  GI50: 2.56 µM (inactive)
[53]
  GI50: 2.36 µM (inactive)
[54]
  GI50: 14 µM (inactive)
[55]
  GI50: 2.8 µM (inactive)
[56]
  GI50: 2.13 µM (inactive)
[57]
  GI50: 2.01 µM (inactive)
[58]
  GI50: 2.7 µM (inactive)
[59]
  GI50: 1.48 µM (inactive)

## C=CC[C@@]1(OC(C)=O)C(=O)C(=O)OC1C1COC(C)(C)O1 (some centres not stated)
[1]
  GI50: 16.3 µM (inactive)
[2]
  GI50: 11.7 µM (inactive)
[3]
  GI50: 42.5 µM (inactive)
[4]
  GI50: 16.3 µM (inactive)
[5]
  GI50: 6.17 µM (inactive)
[6]
  GI50: 6.12 µM (inactive)
[7]
  GI50: 24.1 µM (inactive)
[8]
  GI50: 16.8 µM (inactive)
[9]
  GI50: 12.4 µM (inactive)
[10]
  GI50: 25.1 µM (inactive)
[11]
  GI50: 15.3 µM (inactive)
[12]
  GI50: 15.2 µM (inactive)
[13]
  GI50: 20.7 µM (inactive)
[14]
  GI50: 20.4 µM (inactive)
[15]
  GI50: 21.1 µM (inactive)
[16]
  GI50: 49.4 µM (inactive)
[17]
  GI50: 20.3 µM (inactive)
[18]
  GI50: 18.6 µM (inactive)
[19]
  GI50: 31.8 µM (inactive)
[20]
  GI50: 21.6 µM (inactive)
[21]
  GI50: 70.5 µM (inactive)
[22]
  GI50: 19.5 µM (inactive)
[23]
  GI50: 24.2 µM (inactive)
[24]
  GI50: 17.3 µM (inactive)
[25]
  GI50: 15.7 µM (inactive)
[26]
  GI50: 17.6 µM (inactive)
[27]
  GI50: 13.1 µM (inactive)
[28]
  GI50: 15 µM
[29]
  GI50: 25.3 µM (inactive)
[30]
  GI50: 12.9 µM (inactive)
[31]
  GI50: 17.6 µM (inactive)
[32]
  GI50: 14.3 µM (inactive)
[33]
  GI50: 10.8 µM (inactive)
[34]
  GI50: 16.5 µM (inactive)
[35]
  GI50: 2.08 µM (inactive)
[36]
  GI50: 16.5 µM (inactive)
[37]
  GI50: 19.3 µM (inactive)
[38]
  GI50: 19.8 µM (inactive)
[39]
  GI50: 16.4 µM (inactive)
[40]
  GI50: 18.6 µM (inactive)
[41]
  GI50: 32.4 µM (inactive)
[42]
  GI50: 16 µM (inactive)
[43]
  GI50: 18.8 µM (inactive)
[44]
  GI50: 20.1 µM (inactive)
[45]
  GI50: 14.6 µM (inactive)
[46]
  GI50: 11.9 µM (inactive)
[47]
  GI50: 35.3 µM (inactive)
[48]
  GI50: 17.1 µM (inactive)
[49]
  GI50: 31 µM (inactive)
[50]
  GI50: 21.9 µM (inactive)
[51]
  GI50: 16.6 µM (inactive)
[52]
  GI50: 16.6 µM (inactive)
[53]
  GI50: 15.7 µM (inactive)
[54]
  GI50: 17.9 µM (inactive)
[55]
  GI50: 16.9 µM (inactive)
[56]
  GI50: 16.3 µM (inactive)
[57]
  GI50: 17.2 µM (inactive)
[58]
  GI50: 15.8 µM (inactive)
[59]
  GI50: 6.04 µM (inactive)

## O=C1CCc2c(sc3ncnc(Nc4cccc(Br)c4)c23)C1
[1]
  GI50: 4.06 µM (inactive)
[2]
  GI50: 4.43 µM (inactive)
[3]
  GI50: 7.52 µM (inactive)
[4]
  GI50: 2.73 µM (inactive)
[5]
  GI50: 3.49 µM (inactive)
[6]
  GI50: 2.1 µM (inactive)
[7]
  GI50: 3.11 µM (inactive)
[8]
  GI50: 1.94 µM (inactive)
[9]
  GI50: 2.58 µM (inactive)
[10]
  GI50: 3.63 µM (inactive)
[11]
  GI50: 2.75 µM (inactive)
[12]
  GI50: 2.33 µM (inactive)
[13]
  GI50: 4.26 µM (inactive)
[14]
  GI50: 3.07 µM (inactive)
[15]
  GI50: 3.77 µM (inactive)
[16]
  GI50: 5.53 µM (inactive)
[17]
  GI50: 3.01 µM (inactive)
[18]
  GI50: 2.52 µM (inactive)
[19]
  GI50: 3.7 µM (inactive)
[20]
  GI50: 6.89 µM (inactive)
[21]
  GI50: 4.12 µM (inactive)
[22]
  GI50: 3.92 µM (inactive)
[23]
  GI50: 3.42 µM (inactive)
[24]
  GI50: 3.93 µM (inactive)
[25]
  GI50: 3.6 µM (inactive)
[26]
  GI50: 1.99 µM (inactive)
[27]
  GI50: 3.56 µM (inactive)
[28]
  GI50: 3.24 µM
[29]
  GI50: 2.94 µM (inactive)
[30]
  GI50: 7.36 µM (inactive)
[31]
  GI50: 3.4 µM (inactive)
[32]
  GI50: 3.2 µM (inactive)
[33]
  GI50: 4.32 µM (inactive)
[34]
  GI50: 3.72 µM (inactive)
[35]
  GI50: 2.09 µM (inactive)
[36]
  GI50: 2.65 µM (inactive)
[37]
  GI50: 12.1 µM (inactive)
[38]
  GI50: 6.98 µM (inactive)
[39]
  GI50: 2.19 µM (inactive)
[40]
  GI50: 1.68 µM (inactive)
[41]
  GI50: 3.88 µM (inactive)
[42]
  GI50: 2.4 µM (inactive)
[43]
  GI50: 24.2 µM (inactive)
[44]
  GI50: 3.26 µM (inactive)
[45]
  GI50: 2.54 µM (inactive)
[46]
  GI50: 3.62 µM (inactive)
[47]
  GI50: 4.06 µM (inactive)
[48]
  GI50: 2.51 µM (inactive)
[49]
  GI50: 4.15 µM (inactive)
[50]
  GI50: 14 µM (inactive)
[51]
  GI50: 1.69 µM (inactive)
[52]
  GI50: 1.88 µM (inactive)
[53]
  GI50: 3.42 µM (inactive)
[54]
  GI50: 3.99 µM (inactive)
[55]
  GI50: 2.81 µM (inactive)
[56]
  GI50: 3.55 µM (inactive)
[57]
  GI50: 1.76 µM (inactive)
[58]
  GI50: 3.27 µM (inactive)
[59]
  GI50: 2.08 µM (inactive)
